{"source": "paper PMC12663137", "about": "(Nature Communications, 2025)", "key": {"[1]": {"assay": "Solubility remark (cryo-EM sample preparation)", "type": "physicochemical", "settings": "concentration could not be increased further", "source_text": "convulsions (Daniels V, Wood M, Leclercq K, Kaminski RM, Gillard M. Modulation of the conformational state of the SV2A protein by an allosteric mechanism as evidenced by ligand binding assays. Br J Pharmacol. 2013 […]\nunderstanding of how USC1244283 modulates the binding of antiseizure drugs to SV2A, the cryo-EM structure of an SV2A-UCB1244283 complex should be determined. […]\nallosteric site or also the primary binding site? Are there conformational changes without BRV or UCB-J […]\nIn our original submission, we mentioned our unsuccessful attempt to determine the structure of the SV2A– […]\nThese observations are consistent with the allosteric site not being well formed (i.e., very low aƯinity) in unliganded SV2A; orthosteric ligand binding induces the formation of the allosteric site (increased aƯinity).\nWe have expanded the text to make these points clearer. […]\nendogenous substrate is bound to the transporter, or from other oƯ-target eƯects.\n- Like reported for BRV in the above-mentioned preprint, UCB1244283 prevents dissociation of UCB-J by blocking the luminal gate. […] I think such […]\nexperiments are important to obtain further insights into the action of UCB1244283. […]\nthe orthosteric site and the vesicular lumen. […]\naccessing the orthosteric site, and we have included additional discussion in the revision.\n(1 picture or pasted object on this page, not shown here)"}, "SV2A": {"target": "T1, SV2A (Homo sapiens, UniProt Q7L0J3)", "T1 construct": "expressed in transfected cells; host or cells: HEK293 (ATCC CRL-1573), crude membranes", "T1 sequence (Q7L0J3 whole entry)": "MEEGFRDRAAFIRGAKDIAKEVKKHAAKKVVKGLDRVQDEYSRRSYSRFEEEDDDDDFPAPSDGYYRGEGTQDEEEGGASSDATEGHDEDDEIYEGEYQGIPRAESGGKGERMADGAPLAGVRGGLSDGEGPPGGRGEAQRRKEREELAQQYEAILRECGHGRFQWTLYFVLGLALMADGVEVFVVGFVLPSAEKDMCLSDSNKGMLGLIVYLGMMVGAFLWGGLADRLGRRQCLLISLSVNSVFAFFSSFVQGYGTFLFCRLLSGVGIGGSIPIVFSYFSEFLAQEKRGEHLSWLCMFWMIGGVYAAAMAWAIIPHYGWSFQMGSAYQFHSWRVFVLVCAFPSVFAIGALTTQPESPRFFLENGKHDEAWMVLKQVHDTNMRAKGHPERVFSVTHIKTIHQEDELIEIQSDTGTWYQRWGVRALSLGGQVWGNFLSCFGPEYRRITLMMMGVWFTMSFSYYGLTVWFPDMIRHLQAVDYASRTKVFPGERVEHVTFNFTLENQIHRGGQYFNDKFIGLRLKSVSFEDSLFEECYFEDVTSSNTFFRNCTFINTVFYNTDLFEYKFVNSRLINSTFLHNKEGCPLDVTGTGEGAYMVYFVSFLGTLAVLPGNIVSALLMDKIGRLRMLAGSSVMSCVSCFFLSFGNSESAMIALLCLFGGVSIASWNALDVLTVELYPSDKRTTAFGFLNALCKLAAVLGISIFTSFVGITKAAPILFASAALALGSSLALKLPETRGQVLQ", "assay": "Steady-state (saturation) binding of 3H-UCB-J with 30 µM UCB1244283 or 1% DMSO (Fig. 4A)", "protocol": "Ligand binding studies were carried out using crude membranes prepared from HEK293 cells (ATCC, CRL-1573) overexpressing mVenus-SV2AWT or SV2AEM. Membranes were prepared either from transiently transfected cells or from baculovirus-infected cells as described previously. Cells were washed with DPBS (Ca^2+ and Mg^2+ free), followed by resuspending in cold SH buffer (10 mM HEPES-Tris pH 7.4, 320 mM sucrose) containing protease inhibitor cocktail (MedChemExpress) to a density of 10^7 cells/ml. This cell suspension was homogenized by passing through a bead homogenizer (Isobiotec) with 10-micron clearance bead on ice. The lysate was then centrifuged at 4000 × g for 5 min at 4 °C, and the supernatant was aliquoted, frozen in liquid nitrogen, and stored at −80 °C. The mVenus fluorescence estimated using fluorescence size-exclusion chromatography (FSEC) was used to normalize expression levels of mVenus-SV2A mutants studied as detailed previously. For all binding studies, membranes containing […] protein (estimated by BCA method) per reaction were used.\nAn equal volume of dimethyl sulfoxide (DMSO) was added to control reactions. Reactions were arrested after 2 h by trapping the membranes on a Unifilter-GF/C 96-well filter plate pre-soaked with 0.1%(w/v) polyethyleneimine. Membranes were washed four times with 0.2 ml of cold binding buffer, dried, and 40 µl of scintillation liquid was added to each well. Radioactivity was monitored in MicroBeta2 plate counter. Residual binding observed in presence of either 10 µM ^1H-UCB-J or 10 µM ^1H-padsevonil was considered as background and subtracted from total binding. Estimates for Kd and Bmax were obtained by fitting the data to one site-specific binding curve using GraphPad Prism 10."}}, "note": "Values joined by “and” are separate entries in the source; they are usually repeats but may differ in a detail not shown here. Equal entries are not always repeated.", "data": [{"smiles": "COc1ccccc1NC(=O)CC(C)Cc1cc(C)cc(C)c1", "note": "(centres unmarked) [UCB1244283]", "values": [{"measurement": "solubility", "setting": "[1]", "value": "poor solubility"}, {"measurement": "3H-UCB-J Binding (f.mol/assay)", "setting": "SV2A; 3H-UCB-J 0.78 nM", "value": "6 f.mol/assay and 7 f.mol/assay"}, {"measurement": "3H-UCB-J Binding (f.mol/assay)", "setting": "SV2A; 3H-UCB-J 1.56 nM", "value": "11 f.mol/assay and 8 f.mol/assay and 10 f.mol/assay and 13 f.mol/assay and 14 f.mol/assay"}, {"measurement": "3H-UCB-J Binding (f.mol/assay)", "setting": "SV2A; 3H-UCB-J 6.25 nM", "value": "35 f.mol/assay and 45 f.mol/assay and 39 f.mol/assay and 44 f.mol/assay and 54 f.mol/assay"}, {"measurement": "3H-UCB-J Binding (f.mol/assay)", "setting": "SV2A; 3H-UCB-J 12.50 nM", "value": "66 f.mol/assay and 56 f.mol/assay and 69 f.mol/assay and 73 f.mol/assay and 70 f.mol/assay and 60 f.mol/assay"}, {"measurement": "3H-UCB-J Binding (f.mol/assay)", "setting": "SV2A; 3H-UCB-J 25.00 nM", "value": "90 f.mol/assay and 106 f.mol/assay and 118 f.mol/assay and 84 f.mol/assay and 111 f.mol/assay"}, {"measurement": "3H-UCB-J Binding (f.mol/assay)", "setting": "SV2A; 3H-UCB-J 50.00 nM", "value": "82 f.mol/assay and 91 f.mol/assay and 128 f.mol/assay and 130 f.mol/assay and 116 f.mol/assay and 122 f.mol/assay"}, {"measurement": "3H-UCB-J Binding (f.mol/assay)", "setting": "SV2A; 3H-UCB-J 100.00 nM", "value": "104 f.mol/assay and 70 f.mol/assay and 121 f.mol/assay and 105 f.mol/assay and 88 f.mol/assay and 115 f.mol/assay"}]}]}
